Data published in doi:10.1101/2025.01.28.635286v2 (bioRxiv, 2025).

How the values were obtained:
Assay type in all cases: cell-based, human
[1] = system: phospho-cofilin (serine 3); test: Western blot of phospho-cofilin in hCMEC/D3 monolayers; conditions: TNF-alpha 20 ng/mL, 24 h, western blot normalized to GAPDH, p<0.05
[2] = system: phospho-dynamin; test: Western blot of phospho-dynamin in hCMEC/D3 monolayers; conditions: TNF-alpha 20 ng/mL, 24 h, western blot normalized to GAPDH, p<0.05
[3] = system: phospho-IRS (serine 307); test: Western blot of phospho-IRS in hCMEC/D3 monolayers; conditions: TNF-alpha 20 ng/mL, 24 h, immunoblot normalized to GAPDH, p<0.01
[4] = system: hCMEC/D3 monolayers; test: Confocal microscopy of FITC-Aβ42 uptake in hCMEC/D3 monolayers; conditions: TNF-alpha 20 ng/mL

tumor necrosis factor-alpha [TNF-alpha] was tested, and the “decrease of phospho-cofilin expression compared to control cells” value [1] was “approximately 2 fold”, the “increase in phospho-dynamin levels compared to control cells” value [2] was ~3 fold and the “increase in phospho-IRS expression (serine 307)” value [3] was 3 fold. The “FITC-Aβ42 fluorescence by confocal microscopy in comparison to control cells” value [4] was “increased FITC-Aβ42 fluorescence”.
